# Active and inactive are the calls of the source.
# Columns and labels:
# Leucine aminopeptidase = target: T1, Leucine aminopeptidase (Plasmodium falciparum 3D7, UniProt Q8IL11); assay: P. falciparum M17LAP inhibitors, primary screen, biochemical, fluorogenic H-Leu-NHMec substrate, 1536-well (AID 1619); format: functional
# T1 sequence (Q8IL11 whole entry): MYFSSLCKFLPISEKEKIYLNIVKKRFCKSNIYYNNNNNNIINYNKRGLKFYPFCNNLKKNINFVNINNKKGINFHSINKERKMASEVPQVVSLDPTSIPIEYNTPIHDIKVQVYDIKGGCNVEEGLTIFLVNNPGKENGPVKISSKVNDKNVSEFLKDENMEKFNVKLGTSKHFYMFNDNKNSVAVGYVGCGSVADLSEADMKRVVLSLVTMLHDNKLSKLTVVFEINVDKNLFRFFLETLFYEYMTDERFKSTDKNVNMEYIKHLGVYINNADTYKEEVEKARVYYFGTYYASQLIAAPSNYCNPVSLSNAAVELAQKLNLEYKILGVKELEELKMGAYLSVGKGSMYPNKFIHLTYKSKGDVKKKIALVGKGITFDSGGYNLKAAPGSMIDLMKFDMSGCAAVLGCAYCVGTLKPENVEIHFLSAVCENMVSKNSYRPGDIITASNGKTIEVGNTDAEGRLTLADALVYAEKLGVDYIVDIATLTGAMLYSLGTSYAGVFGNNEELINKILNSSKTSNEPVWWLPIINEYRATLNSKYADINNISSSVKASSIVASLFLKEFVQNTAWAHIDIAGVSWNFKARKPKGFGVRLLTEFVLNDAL
# Cytochrome P450 1A2 = target: T2, Cytochrome P450 1A2 (Homo sapiens, UniProt P05177);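 further: PubChem cytochrome P450 panel assay, CYP1A2 panel member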
# T2 sequence (P05177 whole entry): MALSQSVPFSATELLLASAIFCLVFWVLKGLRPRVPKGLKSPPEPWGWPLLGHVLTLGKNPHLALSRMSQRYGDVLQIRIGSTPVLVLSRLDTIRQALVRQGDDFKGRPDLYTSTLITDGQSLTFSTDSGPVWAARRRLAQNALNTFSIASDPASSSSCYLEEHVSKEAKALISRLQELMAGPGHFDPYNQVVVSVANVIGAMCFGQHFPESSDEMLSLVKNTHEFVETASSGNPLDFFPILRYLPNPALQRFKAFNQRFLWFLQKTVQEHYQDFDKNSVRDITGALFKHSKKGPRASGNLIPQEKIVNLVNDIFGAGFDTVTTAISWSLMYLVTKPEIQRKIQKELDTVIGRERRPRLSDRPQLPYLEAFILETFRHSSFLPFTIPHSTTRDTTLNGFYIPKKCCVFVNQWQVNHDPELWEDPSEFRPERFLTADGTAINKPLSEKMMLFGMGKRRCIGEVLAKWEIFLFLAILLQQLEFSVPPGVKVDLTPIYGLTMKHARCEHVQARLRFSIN
# [1] = viability of PTEN-deleted HCT116 cells – cell-based, HCT116 PTEN knockout, dose response (AID 1047); format: functional;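 further: HCT116 colon tumor cells with PTEN knocked out; cells exposed to compound for 60 hours before readout; potency for loss of cell viability measured by luminescence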
# [2] = viability of HCT116 lacking mutant beta-catenin – cell-based, human colon tumor, dose response (AID 1045); format: functional;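 further: HCT116 colon tumor cells with beta catenin knocked out; cells exposed to compound for 60 hours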
# [3] = Luminescence Cell-Based Dose Retest to Confirm Inhibitors of Cancer Stem Cells. [Related pubchem assays (depositor defined):AID2717, AID2721]; format: functional; conditions: Homo sapiens
# Large T antigen = Large T antigen (Simian virus 40, UniProt P03070); format: functional, Betapolyomavirus macacae;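 further: Confirmatory-stage PubChem screen for compounds that inhibit SV40 T antigen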
# Sequence of Large T antigen (P03070 whole entry): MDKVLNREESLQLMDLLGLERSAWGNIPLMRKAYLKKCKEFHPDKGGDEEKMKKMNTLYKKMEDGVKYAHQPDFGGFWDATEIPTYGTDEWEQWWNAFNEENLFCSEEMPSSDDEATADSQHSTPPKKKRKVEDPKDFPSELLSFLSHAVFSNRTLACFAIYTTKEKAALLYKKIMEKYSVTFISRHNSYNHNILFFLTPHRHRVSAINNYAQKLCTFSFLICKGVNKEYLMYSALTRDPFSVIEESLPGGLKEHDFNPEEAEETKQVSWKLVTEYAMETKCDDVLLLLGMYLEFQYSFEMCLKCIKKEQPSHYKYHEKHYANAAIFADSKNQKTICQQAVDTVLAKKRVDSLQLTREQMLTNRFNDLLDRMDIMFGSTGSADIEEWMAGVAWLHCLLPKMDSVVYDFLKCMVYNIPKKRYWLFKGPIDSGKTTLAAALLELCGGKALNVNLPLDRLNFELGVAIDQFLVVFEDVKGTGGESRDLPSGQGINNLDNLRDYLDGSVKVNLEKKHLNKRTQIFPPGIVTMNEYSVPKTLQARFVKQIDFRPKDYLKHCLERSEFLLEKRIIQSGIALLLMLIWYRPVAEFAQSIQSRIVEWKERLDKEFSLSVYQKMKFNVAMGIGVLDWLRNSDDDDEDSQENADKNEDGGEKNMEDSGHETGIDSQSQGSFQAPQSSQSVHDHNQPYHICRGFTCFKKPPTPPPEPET
# [4] = target: Induced myeloid leukemia cell differentiation protein Mcl-1 (Homo sapiens, UniProt Q07820); format: functional
# Sequence of Induced myeloid leukemia cell differentiation protein Mcl-1 (Q07820 whole entry): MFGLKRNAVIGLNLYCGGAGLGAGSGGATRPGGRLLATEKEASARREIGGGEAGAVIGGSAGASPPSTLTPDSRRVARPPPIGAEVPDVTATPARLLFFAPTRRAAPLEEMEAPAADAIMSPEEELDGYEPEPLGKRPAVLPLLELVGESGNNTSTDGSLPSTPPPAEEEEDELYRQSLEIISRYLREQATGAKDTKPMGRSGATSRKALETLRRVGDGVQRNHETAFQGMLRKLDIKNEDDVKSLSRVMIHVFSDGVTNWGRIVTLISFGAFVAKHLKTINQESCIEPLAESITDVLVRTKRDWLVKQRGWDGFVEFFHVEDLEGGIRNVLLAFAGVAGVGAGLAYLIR
# Nonstructural protein 1 = Nonstructural protein 1 (Influenza A virus, UniProt Q194T2); format: functional, Influenza A virus (A/California/07/2009(H1N1))
# Sequence of Nonstructural protein 1 (Q194T2 whole entry, the tested form may be a part): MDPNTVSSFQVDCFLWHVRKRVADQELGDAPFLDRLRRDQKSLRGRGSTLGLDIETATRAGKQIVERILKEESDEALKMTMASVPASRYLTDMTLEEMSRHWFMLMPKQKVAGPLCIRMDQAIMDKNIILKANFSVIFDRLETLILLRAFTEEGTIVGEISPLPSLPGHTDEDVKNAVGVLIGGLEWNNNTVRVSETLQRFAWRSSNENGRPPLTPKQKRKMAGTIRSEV
# [5] = blockers of HIV-1 envelope-mediated cell-cell fusion – cherry-pick, dose response (AID 652057); format: functional, cell-based
# [6] = HIV-1 AD8 envelope cell-cell fusion blockers – cherry-pick, dose response (AID 652062); format: functional, cell-based;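 further: luciferase signal from cell-cell fusion driven by HIV-1 clade B AD8 Env; potency is for inhibitors of fusion seen as a drop in luminescence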
# [7] = off-target signal loss in HeLa-CEM21 co-culture – HeLa F-luc CTL cells, cherry-picked, counter-screen for HIV-1 Env fusion inhibitor project, dose response (AID 652040); format: functional, cell-based;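 further: potency for signal decrease marking cytotoxic or nonspecific inhibition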
# [8] = blockers of HIV-1 ZM109 envelope-driven cell-cell fusion – HeLa effector, CEM target cells, luciferase, cherry-pick, dose response (AID 652058); format: functional, cell-based;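 further: luciferase signal from HIV-1 Env mediated cell-cell fusion of effector and target cells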
# [9] = viability of uninfected HEp-2 cells – cell-based, HTS, cytotoxicity control for RSV inhibitor project, dose response (AID 2410); format: functional; conditions: human respiratory syncytial virus
# [10] = reduction of Shn3 3'UTR-driven luciferase in osteoblasts – cell-based, Clone20 osteoblasts, firefly luciferase, cherry-picked, dose response (AID 624132); format: functional;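 further: firefly luciferase luminescence from reporter carrying the Shn3 3'UTR in osteoblasts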
# INS1 = assay: INS-1E survival protection against cytokine death – cell-based, luminescence, retest, dose response (AID 449756); format: functional; conditions: Rattus norvegicus;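 further: cell death triggered by IL-1 beta plus TNF-alpha plus IFN-gamma mixture; protective hits raise ATP signal compared with cytokine alone wells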
# [11] = target: T3, Rac GTPase-activating protein 1 (Homo sapiens, UniProt Q9H0H5); assay: blockers of MgcRacGAP-driven Rac1 GTP hydrolysis – biochemical, ADP Hunter fluorescence, primary and confirmatory, confirmation (AID 624330); format: functional
# T3 sequence (Q9H0H5 whole entry): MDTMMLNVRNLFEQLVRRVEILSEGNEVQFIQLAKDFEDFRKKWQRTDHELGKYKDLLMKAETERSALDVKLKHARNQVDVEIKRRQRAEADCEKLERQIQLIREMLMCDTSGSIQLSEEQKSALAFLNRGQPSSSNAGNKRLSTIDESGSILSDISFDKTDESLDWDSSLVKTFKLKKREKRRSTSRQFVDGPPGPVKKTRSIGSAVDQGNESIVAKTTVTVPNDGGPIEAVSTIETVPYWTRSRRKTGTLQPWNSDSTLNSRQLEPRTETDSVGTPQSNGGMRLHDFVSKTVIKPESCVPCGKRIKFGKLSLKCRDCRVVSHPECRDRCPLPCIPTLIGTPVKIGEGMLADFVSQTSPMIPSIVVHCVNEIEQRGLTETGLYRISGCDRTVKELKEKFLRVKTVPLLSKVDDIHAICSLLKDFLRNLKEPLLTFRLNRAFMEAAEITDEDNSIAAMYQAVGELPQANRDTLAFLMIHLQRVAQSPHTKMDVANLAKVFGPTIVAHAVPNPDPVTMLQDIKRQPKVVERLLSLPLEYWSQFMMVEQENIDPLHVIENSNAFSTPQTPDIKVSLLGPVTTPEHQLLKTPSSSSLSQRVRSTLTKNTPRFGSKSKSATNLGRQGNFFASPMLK
compound,measurement,setting,value
O=C(CSc1ncccc1C(=O)O)NCc1ccc(F)cc1,IC50,Leucine aminopeptidase,42.7 µM (active)
CCC(=O)c1ccc(OCC(O)CN(CCc2ccccc2)Cc2ccccc2)cc1 (stereo not given),AC50,Cytochrome P450 1A2,20 µM (inconclusive)
same,EC50,[1],49.2 µM (active)
same,EC50,[2],83.6 µM (active)
COc1ccc(C2NCCc3c2[nH]c2ccccc32)cc1CSc1nc2ccccc2s1 (stereo not given),AC50,[3],3.13 µM (active)
same,EC50,[1],12.1 µM (active)
same,EC50,[2],10.1 µM (active)
Cc1nnc(SCC(=O)Nc2ccc(N(C)C)cc2)n(N)c1=O,IC50,Large T antigen,11.6 µM (active)
FC(F)(F)C1=CC(c2ccccc2)=NCCN1,IC50,[4],9.33 µM (not active)
CC(NC(=O)c1ccco1)C(=O)Nc1nc(-c2ccccn2)cs1 (stereo not given),IC50,Nonstructural protein 1,9.55 µM (active)
Oc1ccc(-c2nc3ncccn3c2Nc2ccc3c(c2)OCO3)cc1,IC50,Large T antigen,15.6 µM (active)
O=C(Nc1nc2ccccc2[nH]1)c1ccc(Cl)c([N+](=O)[O-])c1,IC50,[4],6.46 µM (active)
COc1ccc(/C=C/C(O)=C2\C(=O)NC(=O)N(CCC3=CCCCC3)C2=O)cc1,AC50,[3],2.71 µM (active)
same,EC50,[1],13.7 µM (active)
same,EC50,[2],14.4 µM (active)
CN(C)c1ccc(NC(=O)CCN2CCN(c3ccccn3)CC2)cc1,IC50,Large T antigen,6.73 µM (active)
CC1CCC2(CC1)NC(=O)N(CC(=O)Nc1ccc3c(c1)OCCO3)C2=O (stereo not given),IC50,Leucine aminopeptidase,13.8 µM (active)
COc1ccc(C(C(=O)NC2CCCC2)N(C(=O)c2ccoc2C)c2ccc(C)cc2)cc1 (stereo not given),AC50,[5],5.46 µM (active)
same,AC50,[6],11.7 µM (active)
same,AC50,[7],8.48 µM (active)
same,AC50,[8],3.47 µM (active)
C=CCOc1ccccc1CNc1ccc2[nH]c(O)nc2c1,IC50,Large T antigen,19 µM (active)
same,CC50,[9],21.8 µM (active)
CCOc1ccc(C2C3=C(O)c4ccccc4C3=Nc3nc(N)nc(O)c32)cc1 (stereo not given),IC50,[4],> 54 µM (active)
Cc1cc(C=C2C(=O)c3ccccc3C2=O)c(C)n1-c1cccc(C(=O)O)c1,IC50,Leucine aminopeptidase,18.6 µM (active)
CC12CC3CC(C)(C1)CC(C(=O)NCc1ccncc1)(C3)C2,AC50,[5],7.75 µM (active)
same,AC50,[6],22.4 µM (active)
same,AC50,[7],13.5 µM (active)
same,AC50,[8],4.58 µM (active)
CCCCN1CC(COCc2ccccc2)Oc2cccc(Oc3ccc(C)cc3)c2S1(=O)=O (stereo not given),AC50,[10],10.7 µM (active)
Cc1ccccc1NC(=S)N/N=C/c1ccc(O)cc1O,IC50,Nonstructural protein 1,11.2 µM (active)
same,AC50,INS1,2.54 µM (active)
CCOc1cc(/C=N/NC(=O)CCc2nnc(O)nc2O)ccc1O,IC50,Large T antigen,32.7 µM (active)
same,IC50,[11],59.5 µM (active)
COc1nccnc1NS(=O)(=O)c1ccc(/N=C/c2c(C)nn(-c3ccc(C)c(C)c3)c2O)cc1,IC50,Leucine aminopeptidase,19.3 µM (active)
